From patent EP1192131B1, “METHOD OF INHIBITING AMYLOID PROTEIN AGGREGATION AND IMAGING AMYLOID DEPOSITS USING ISOINDOLINE DERIVATIVES” (Warner-Lambert Company LLC, priority 1999, dated 2000)
pIC50: −log10 of the molar value. Where “and” joins values, the source holds several entries; their conditions need not be identical. Identical values can stand only once. Like-named read-outs stand apart in the source and are kept apart here.

Legend:
Aβ (1-42) = molecular target: T1, Aβ (1-42) (Homo sapiens, UniProt P05067); experiment: BATYM assay, Aβ (1-42) aggregation, Thioflavin T fluorescence; assay type: biochemical
T1 construct: Required Aβ (1-42)(California Peptide) was dried from its hexafluoroisopropanol (HFIP) stock solution; purchased California Peptide
Description: Required Aβ (1-42)(California Peptide) was dried from its hexafluoroisopropanol (HFIP) stock solution. The Aβ (1-42) was dissolved in dimethylsulfoxide (DMSO) and then mixed with phosphate buffered saline (PBS) (pH 7.4). The mixed Aβ (1-42) solution was filtered through a […] Omnipore membrane syringe filter (Millipore, Bedford, MA). The compound to be tested in DMSO (50 times concentrate) was put into each well (0.5 µL/well) of a 96-well plate. The Aβ (1-42) solution was added into each well (24.5 µL/well). The plate was centrifuged at 1,000 g for 5 minutes and incubated at 37°C for 1 day (Aβ 1-42; final concentration 100 µM).
After incubation Thioflavin T (ThT) (30 µM) solution in glycine-NaOH buffer (pH 8.5, 50 mM) was added into each well (250 µL/well), fluorescence was measured (ex. 440/20 nm; em 485/20 nm) using a fluorescence plate reader. The inhibitory activity was calculated as the reduction of fluorescence with the following formula: Inhibition (%) = {(F(Aβ)-F(Aβ+compound)}/{F(Aβ)-F (solvent+compound)} × 100 [formula]
The IC50s (concentration of test compound required to cause a 50% inhibition of aggregation) were calculated by a curve fitting program using the following equation. The data were obtained from two different experiments in triplicate. Inhibition (x) = 100-100/{1 + (x/IC50)^n }, [formula] x = concentration of tested compound (M), IC50 = (M), n = Hill coefficient.

Aβ(1-40) = Aβ(1-40) (Homo sapiens, UniProt P05067); experiment: BASSR (Beta-Amyloid Self-Seeding Radioassay), inhibition of self-seeded amyloid fibril growth; assay type: biochemical; parameters: Soluble Aβ(1-40) peptide (Bachem, Torrance, CA); purchased Bachem, Torrance, CA; conditions: 30 µM soluble Aβ (1-40) + 125I-labeled Aβ(1-40), 37°C, 3 to 5 hours, several values in a cell = repeat values, letter in parentheses = lot of compound (no letter = Lot P), (ppt), (v-shape) flags; for IC50: read-out: BASSR IC50 (converted); for pIC50: read-out: BASSR IC50
Description: BASSR (Beta-Amyloid Self-Seeding Radioassay)
An assay for inhibitors of self-seeded amyloid fibril growth
Assay Buffer - 50 mM sodium phosphate, pH 7.5, 100 mM NaCl, 0.02% NaN3, 1 M urea (filter and store at 4°C)
Soluble Aβ(1-40) peptide (Bachem, Torrance, CA) - 2.2 mg/mL in deionized H2O (stored in aliquots at -20°C, keep on ice when thawed) will self-seed after 1 week storage. Typically, the solution should be stored until no lag phase is seen in the assay.
^125I-labeled Aβ (1-40) - 150K-350K cpm/µL in 100% acetonitrile -0.1% trifluoroacetic acid (TFA) -1% β-mercaptoethanol (aliquots stored at -20°C) ^125I-labeled Aβ(1-40) can be made in accordance with the procedure set forth by H. LeVine, III in Neurobiol. Aging, 16:755 (1995), which is hereby incorporated by reference, or this reagent may be purchased from Amersham, Arlington Heights, Illinois.
Final assay conditions: 30 µM soluble Aβ (1-40) in deionized water in assay buffer + 20-50K cpm ^125I-labeled Aβ(1-40) per assay. Compound to be tested is dissolved in dimethylsulfoxide (DMSO), typically 5-50 mM stock, such that the final concentration of DMSO is <1% v/v in the assay.
Assay: Reaction mixture for 50 assays (on ice) is comprised of 0.1-0.2 µL of ^125I-labeled A^125I-labeled Aβ(1-40) + 1 µL of soluble Aβ (1-40) + 13.5 µL assay buffer per assay. The following are the amounts of the components of the reaction mixture sufficient for 50 assay wells. 5-10 µL ^125I-labeled Aβ (1-40) dried down 675 µL assay buffer 50 µL soluble Aβ (1-40)
• 1) Prepare reaction mixture above by mixing components and storing on ice. • 2) Pipet 14.5 µL of reaction mixture into each of 50 wells on a polypropylene U-bottom 96-well microtiter plate on ice (Costar 3794). • 3) Add 1.7 µL, of diluted compound to be tested to each well in a column of eight, including solvent control. Serial 3-fold dilutions from 1 mM (100 µM final) in assay buffer -urea = 7 dilutions + zero. Each 96-well plate can therefore accommodate 11 samples + 1 Congo Red control (0.039-5 µM final in 2-fold steps). • 4) Seal the plate with aluminum film (Beckman 538619) and incubate for 10 minutes on ice. • 5) Raise the temperature to 37°C and incubate for 3 to 5 hours (depending on the lot of the peptide). • 6) Remove the aluminum film and add 200 µL/well of ice cold assay buffer with urea, collecting the radiolabeled fibrils by vacuum filtration through 0.2 µm pore size GVWP filters in 96-well plates (Millipore MAGV N22, Bedford, MA). Determine the radioactivity of the filters using standard methods well-known to those skilled in the art.

[1] = Aβ 1-42 final concentration 100 µM, 37°C, 1 day, letter in parentheses = lot of compound (no letter = Lot P), read-out: BATYM IC50
[2] = read-out: BATYM IC50, Aβ 1-42 final concentration 100 µM, 37°C, 1 day, letter in parentheses = lot of compound (no letter = Lot P)

T1 sequence (P05067 672-713): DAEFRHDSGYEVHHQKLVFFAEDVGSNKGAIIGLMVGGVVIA
Chain of Aβ(1-40) (P05067 672-711): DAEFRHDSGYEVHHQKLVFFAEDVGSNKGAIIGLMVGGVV

Row | Compound | pIC50 (Aβ (1-42); [1]) | IC50 (Aβ(1-40)) | pIC50 (Aβ (1-42); [2]) | pIC50 (Aβ(1-40))
1 | 2-[2-(3,4-Dimethylphenyl)-2,3-dihydro-1H-isoindol-5-ylamino]benzoic acid [Example 9] | 4.48 | > 100 µM | – | –
2 | 2-[2-(3-chlorophenyl)-2,3-dihydro-1H-isoindol-5-ylamino]benzoic acid [Example 7] | 4.43 | 90 µM and 80 µM and > 100 µM | – | –
3 | 2-[2-(4-chlorophenyl)-2,3-dihydro-1H-isoindol-5-ylamino]benzoic acid [Example 8] | 4.48 | > 100 µM | – | –
4 | O=C(O)c1ccccc1Nc1ccc2c(c1)CN(c1ccc(Cl)c(Cl)c1)C2 [Example 4, 2-[2-(3,4-Dichlorophenyl)-2,3-dihydro-1H-isoindol-5-ylamino]benzoic acid] | 4.58 and 4.65 | 12 µM and 11 µM (2×) and 15 µM (3×) | – | –
5 | COc1cc(Nc2ccc3c(c2)CN(c2ccc(Cl)c(Cl)c2)C3)c(C(=O)O)cc1[N+](=O)[O-] [Example 6, 2-[2-(3,4-Dichlorophenyl)-2,3-dihydro-1H-isoindol-5-ylamino]-4-methoxy-5-nitro-benzoic acid] | 4.87 and 4.84 | 7 µM (2×) and 12 µM and 4 µM and 5 µM | – | –
6 | O=C(O)c1ccccc1Nc1ccc2c(c1)CN(c1ccc(Cl)c(C(F)(F)F)c1)C2 [Example 10, 2-[2-(4-Chloro-3-trifluoromethylphenyl)-2,3-dihydro-1H-isoindol-5-ylamino]benzoic acid] | – | – | 4.46 | 4.00 and 4.24 and 4.26 and 4.15
7 | Cc1ccc(N2Cc3ccc(Nc4ccc([N+](=O)[O-])cc4C(=O)O)cc3C2)cc1C [Example 12, 2-[2-(3,4-Dimethyl-phenyl)-2,3-dihydro-1H-isoindol-5-ylamino]-5-nitro-benzoic acid] | 4.93 | > 100 µM | – | –
8 | O=C(O)c1cc([N+](=O)[O-])ccc1Nc1ccc2c(c1)CN(c1ccc(Cl)cc1)C2 [Example 15, 2-[2-(4-Chloro-phenyl)-2,3-dihydro-1H-isoindol-5-ylamino]-5-nitro-benzoic acid] | 4.49 | > 100 µM | – | –
9 | Clc1ccc(N2Cc3ccc(Nc4ccccc4-c4nnn[nH]4)cc3C2)cc1Cl [Example 16, [2-(3,4-Dichloro-phenyl)-2,3-dihydro-1H-isoindol-5-yl]-[2-(1H-tetrazol-5-yl)-phenyl]-amine] | 4.53 | > 100 µM | – | –
10 | Nc1ccc(Nc2ccc3c(c2)CN(c2ccc(Cl)c(Cl)c2)C3)c(C(=O)O)c1 [Example 17, 5-Amino-2-[2-(3,4-dichloro-phenyl)-2,3-dihydro-1H-isoindol-5-ylamino]-benzoic acid] | 4.70 | 20 µM and 80 µM | – | –
11 | O=C(O)c1cc([N+](=O)[O-])ccc1Nc1ccc2c(c1)CN(c1ccccc1)C2 [Example 18, 5-Nitro-2-(2-phenyl-2,3-dihydro-1H-isoindol-5-ylamino)-benzoic acid] | 4.78 | 7 µM and 4 µM and 5 µM | – | –
12 | O=C(O)c1cc([N+](=O)[O-])ccc1Nc1ccc2c(c1)CN(c1ccc(Cl)c(C(F)(F)F)c1)C2 [Example 19, 2-[2-(4-Chloro-3-trifluoromethyl-phenyl)-2,3-dihydro-1H-isoindol-5-ylamino]-5-nitro-benzoic acid] | – | – | 4.89 | 5.96 and 6.00
13 | O=C(O)c1cc([N+](=O)[O-])ccc1Nc1ccc2c(c1)CN(c1cccc(F)c1)C2 [Example 20, 2-[2-(3-Fluoro-phenyl)-2,3-dihydro-1H-isoindol-5-ylamino]-5-nitro-benzoic acid] | 4.94 | > 100 µM | – | –
14 | COc1cccc(N2Cc3ccc(Nc4ccc([N+](=O)[O-])cc4C(=O)O)cc3C2)c1 [Example 21, 2-[2-(3-Methoxy-phenyl)-2,3-dihydro-1H-isoindol-5-ylamino]-5-nitro-benzoic acid] | 5.02 | 7 µM and 2.2 µM and 2 µM | – | –
15 | O=C(O)c1ccccc1Nc1ccc2c(c1)CN(c1cccc(F)c1)C2 [Example 22, 2-[2-(3-Fluoro-phenyl)-2,3-dihydro-1H-isoindol-5-ylamino]-benzoic acid] | 4.08 | 10 µM and 3 µM (2×) and 6.5 µM and 8 µM | – | –
16 | O=C(O)c1cc(F)ccc1Nc1ccc2c(c1)CN(c1ccc(Cl)c(Cl)c1)C2 [Example 23, 2-[2-(3,4-Dichloro-phenyl)-2,3-dihydro-1H-isoindol-5-ylamino]-5-fluoro-benzoic acid] | 4.47 | > 100 µM and 50 µM and 70 µM | – | –
17 | COc1cc(N2Cc3ccc(Nc4ccccc4C#N)cc3C2)cc(OC)c1OC [Example 25, 2-[2-(3,4,5-Trimethoxy-phenyl)-2,3-dihydro-1H-isoindol-5-ylamino]-benzonitrile] | < 4.00 | > 100 µM | – | –
18 | COc1cccc(N2Cc3ccc(Nc4ccccc4C(=O)O)cc3C2)c1 [Example 26, 2-[2-(3-Methoxy-phenyl)-2,3-dihydro-1H-isoindol-5-ylamino]-benzoic acid] | 4.19 | > 100 µM | – | –
